Columns and labels:
[1] = Bioavailability of palonosetron as ocular drops vs. intravenous administration; format: in vivo, Beagle dogs
Method: Experiment 1. Bioavailability of Palonosetron as Ocular Drops Vs. Intravenous Administration
Bioavailability of palonosetron as ocular drops at the dose of 30 μg/kg was compared to 10 μg/kg intravenous (i.v.) palonosetron in Beagle dogs (n=6). The study was a crossover study with 7 days washout period between the treatment periods. The animals were fasted overnight before dosing by withdrawing the remaining feed (if any) at least 12 h before dosing. On dosing days food was offered approximately at 4 h after dosing (after the 4 h blood sampling).
Palonosetron 30 μg/kg eye drops prepared according to Formulation Example 1 were administered in the eye using a micropipette in an amount of 10 μl/kg (approximately half volume in each eye).
Palonosetron 10 μg/kg intravenous dose was administered in cephalic vein in slow i.v. bolus dosed within 30 seconds.
Blood samples were collected into K2EDTA tubes over a 48 h period after each treatment at the following time points: predose, 5 min, 10 min, 20 min, 30 min, 45 min, 1 h, 1.5 h, 2 h, 4 h, 6 h, 8 h, 12 h, 24 h and 48 h post administration. Aliquots of plasma were prepared and stored frozen until analysis. Palonosetron concentration in plasma was determined using Liquid chromatography-triple quadrupole mass spectrometry. The lower limit of quantification for palonosetron in dog plasma was 0.02 ng/ml.

[2] = test system: cisplatin-induced nausea and vomiting; assay: Efficacy of palonosetron eye drops in cisplatin-induced nausea and vomiting model; format: in vivo, Beagle dogs; conditions: n=6; for vomiting episodes: T0-T420 min
Method: Experiment 3. Efficacy of Palonosetron Eye Drops in Cisplatin-Induced Nausea and Vomiting Model Methods: Six non-naive adult male Beagle dogs were intravenously administered (2 ml/min) cisplatin at 18 mg/m^2 body surface over 20 min. Then, 45 min after the end of the infusion, the dogs received eye drops prepared according to Formulation Example 1 at 30 or 120 μg/kg of palonosetron or its vehicle (0.9% saline, 2% povidone) in a cross-over design. Then, the following parameters were recorded by blinded observers over 15 min periods from TO (end of the infusion of cisplatin) to 420 min (T420) after the end of the infusion of cisplatin: vomiting episodes and nausea-like behaviours including salivation, exaggerated swallowing motions, lip licking, lethargy, restlessness, and turning behaviour signalling that vomiting is imminent. In addition, a visual analogue scale (VAS) from 0 to 100 mm was used to assess the severity of the dogs' nausea-like behaviours (where a score of 0 mm=no nausea and a score of 100 mm=worst possible nausea).

[3] = 30 μg/kg ocular drops (Formulation Example 1), Beagle dogs

elimination phase [1, 3]: extended elimination phase | systemic exposure [1, 3]: good systemic exposure | bioavailability ([1]; dog, other: ocular drops (administered in the eye), 30 μg/kg ocular drops (Formulation Example 1) vs. 10 μg/kg i.v., Beagle dogs (n=6), plasma): 65.6%
SMILES: O=C1c2cccc3c2[C@H](CCC3)CN1[C@@H]1CN2CCC1CC2 [Palonosetron]
absorption [1, 3]: fast absorption comparable to intravenous administration | eye irritation [1, 3]: No significant eye irritation was seen | vomiting episodes ([2]; 30 μg/kg eye drops (Formulation Example 1) 45 min after cisplatin 18 mg/m^2 i.v.): 1 vomiting episode in 2 dogs overall | VAS AUC (nausea) ([2]; 30 μg/kg eye drops (Formulation Example 1) after cisplatin 18 mg/m^2, mean±SEM): 320±268 mm*m | vomiting episodes ([2]; 120 μg/kg eye drops (Formulation Example 1) 45 min after cisplatin 18 mg/m^2 i.v.): inhibited vomiting totally | VAS AUC (nausea) ([2]; 120 μg/kg eye drops (Formulation Example 1) after cisplatin 18 mg/m^2, mean±SEM): 0±0 mm*m
